Experimental data as given in US20110269807A1, “NOVEL TREATMENT FOR AGE RELATED MACULAR DEGENERATION AND OCULAR ISCHEMIC DISEASE ASSOCIATED WITH COMPLEMENT ACTIVATION BY TARGETING 5-LIPOXYGENASE” (ALLERGAN, INC., priority 2010, published 2011).
Entries after “also recorded” stand apart in the source; their conditions may differ.

Columns and labels:
[1] = system: ARPE-19 cells; assay: Complement mediated cell death assay on RPE cells in the context of oxidative stress (cell protection assay, NIH clinical collection library screen); assay type: cell-based; settings: for protection against cell death mediated by complement attack and oxidative stress: versus vehicle (DMSO)
Method: ARPE-19 cells were plated at sub confluence in 96 well culture plates and cultured 24 to 48 hrs. The cells were then treated with 1:1000 dilution of each compound from the NIH clinical collection library overnight. The following day culture media was collected and set aside. The cells were washed and then treated with 0.77 mM H2O2 in hanks buffered saline solution (HBSS) for 90 minutes in the presence of fresh compound from NIH clinical collection library at a 1:1000 dilution. Cells were then washed and primed with a solution of HBSS containing 24% S-58 for 30 minutes. After the priming step cells were washed and then treated with 6% C1q deficient human serum in the original cell culture supernatant collected prior to H2O2 treatment. 90 minutes after addition of the human serum cells were labeled with the membrane impermeant nuclear dye SYTOX® orange and the number of positive cells determined. This count was then used to determine level of cell death. Quantitation and imaging were accomplished by capturing a single field per objective using a 10× objective and then counting the number of positive nuclei using metamorph image analysis software. Data was collected and expressed as % protection relative to wells containing vehicle alone (DMSO).
Data was collected and the level of protection by each compound determined by averaging the results of two independent experiments. FIG. 4 is the distribution of results indexed to compound plate (y-axis) and Protection (x-axis). […] FIG. 5 contains a list of compounds with protective properties. Of the 17 compounds selected, six compounds (Zeranol, Penciclovir, Rifapentine, Rifaximin, calcitrol, 3-[3,5-DIBROMO-4-HYDROXYBENZOYL]-2-ETHYLBENZOFURAN) were deemed to function as anti-oxidants in the assay. Of the remaining 11 compounds, four fall into a single class associated with modulation of the arachidonic acid pathway. This included Zileuton, Zafirlukast, Montelukast, and Loxoprofen. […] The targeting was both direct at 5-lipoxygenase (Zileuton) and indirect at the leukotiene receptor (Zafirlukast, Montelukast).
The observation that inhibition of 5-lipoxygenase is protective against the combined effects of oxidative stress and complement attack in ARPE-19 cells prompted us to test the 5 lipoxygenase activating protein inhibitor MK886 for its ability to protect ARPE-19 cells from oxidative stress and complement attack in vitro. The cell protection assay was carried out essentially as described in Examples 1-4.
In addition to the MK886 inhibitor we also evaluated other know 5-lipoxygenase inhibitors, including 2-TEDC and monocyclin, for their ability to protect ARPE-19 cells against oxidative stress and complement attack, using the cell protection assay described in Examples 1-4.

[2] = system: ARPE-19 cells; assay: Oxidative stress followed by challenge with complement, cell death; assay type: cell-based; settings: then challenge with complement
From the text: Oxidative stress and complement activation are the two most highly cited factors associated with occurrence and progression of AMD. To examine functional consequences of this relationship we treated ARPE-19 cells with either H2O2 or t-BH followed by challenge with complement. […] FACS analysis of ARPE-19 after treatment with t-Bh or H2O2 indicated minimal impact in expression levels (FIG. 3B).

[3] = system: Balb/c mice; assay: Blue light induced retinal damage, ERG; assay type: in vivo; settings: 1 mg/Kg PO BID 14 days; ERG 2 weeks post blue light; p<0.05
From the text: To further explore the protective effects of inhibition of the 5-lipoxygenase pathway, we examined the ability of 5-lipoxygenase inhibition in two in vivo models. The first in vivo model was a model of retinal oxidative stress induced by intravitreal injection of Paraquat in SOD1−/+ animals (Dong, A., et al., Superoxide dismutase 1 protects retinal cells from oxidative damage. J Cell Physiol, 2006. 208(3): p. 516-26). In addition to elevation of oxidative stress Paraquat is also known to induce activation of complement (Sun, S., et al. (2011 Mar. 18) “Complement Inhibition Alleviates Paraquat-Induced Acute Lung Injury” Am J Respir Cell Mol Biol. EPub), allowing us to examine effects of oxidative stress and complement activation in vivo similar to that observed in the in vitro RPE assay, above. The second in vivo model in which we examined the effects of 5-lipoxygenase inhibition was a rodent light induced retinal degeneration model. […]
The ERG was performed 2 weeks post blue light (4 days post OCT to allow for cataracts to clear). […] The ERG was then recorded with the animal on a heating pad (takes 7-8 minutes). Animals were revived by administration of 0.5 mg/kg atipamezole (injected i.p.), returned to their cages, and warmed using a heating pad and monitored until awake.

[4] = system: Balb/c mice; assay: Blue light induced retinal damage, outer nuclear layer histology scoring; assay type: in vivo; settings: 1 mg/Kg PO BID 14 days; blue light 4800 lux 8 hours
Method: Balb/c mice were dosed orally (PO) at 1 mg/Kg starting 16 hours prior to blue light, and then BID for the next 14 days. Control animal received an equivalent volume of vehicle (0.5% Avicel R-91 and 0.1% Tween-80 in dH2O) to compound treated animals.
Animals were first dark adapted for 16 hours prior to blue light. Animals were then exposed to blue light at 4800 lux for 8 hours. Animals were then moved to normal housing conditions.
Eyes were immersion fixed over night at room temperature in Davidson's Fix special (BBC Biochemical, Mt Vernon, Wash.), dehydrated for 1 hr in 50% EtOH at room temperature, and then placed into 70% EtOH at room temperature. Eyes were stored in 70% EtOH until subjected to automated paraffin processing. After processing, eyes were embedded in paraffin, sectioned on a rotary microtome at 5 μm thickness through the optic nerve head parallel to the vertical meridian, and mounted on glass slides. Sections were baked onto slides, subjected to automated H&E staining, and coverslipped using permanent mounting medium. Stained tissue sections were then examined by an observed blinded to treatment regiments and scored to determine the level of damage to the outer nuclear layer.

[5] = target: T1, 5-lipoxygenase (Homo sapiens, UniProt P09917); settings: read-out: known I.C.50 inhibition of 5-lipoxygenase; Cho et al., J Med Chem 1991; cited from earlier work
T1 sequence (P09917 1-674): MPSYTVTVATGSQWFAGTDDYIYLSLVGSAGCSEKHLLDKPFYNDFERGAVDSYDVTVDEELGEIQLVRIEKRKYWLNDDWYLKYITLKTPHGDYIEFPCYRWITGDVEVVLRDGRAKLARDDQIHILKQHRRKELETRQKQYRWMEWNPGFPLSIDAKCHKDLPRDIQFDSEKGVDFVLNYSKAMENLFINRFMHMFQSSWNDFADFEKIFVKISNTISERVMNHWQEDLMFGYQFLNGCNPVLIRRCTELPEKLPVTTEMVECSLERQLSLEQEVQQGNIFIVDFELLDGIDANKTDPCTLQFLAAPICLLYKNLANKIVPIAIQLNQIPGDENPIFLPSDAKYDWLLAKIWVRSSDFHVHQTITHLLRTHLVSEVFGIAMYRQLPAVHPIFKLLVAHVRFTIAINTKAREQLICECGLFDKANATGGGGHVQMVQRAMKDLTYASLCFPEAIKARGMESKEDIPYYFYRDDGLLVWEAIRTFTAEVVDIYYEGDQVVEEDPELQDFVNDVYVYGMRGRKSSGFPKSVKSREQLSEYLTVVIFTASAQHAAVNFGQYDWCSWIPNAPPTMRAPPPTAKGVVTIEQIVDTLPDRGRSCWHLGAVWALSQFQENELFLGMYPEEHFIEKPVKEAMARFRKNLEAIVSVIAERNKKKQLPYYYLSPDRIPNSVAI

CC(C)c1ccc2c(c1)c(SC(C)(C)C)c(CC(C)(C)C(=O)[O-])n2Cc1ccc(Cl)cc1.[Na+] [MK886, 1-[(4-chlorophenyl)methyl]-3-[(1,1-dimethylethyl)thio]-α,α-dimethyl-5-(1-methylethyl)-1H-indole-2-propanoic acid, sodium salt]
protection against cell death mediated by complement attack and oxidative stress ([1]; sodium salt): dose dependently protected; also recorded: protects; also recorded: effectively blocked cell death in a dose dependent manner

c1ccc2c(c1)SCc1c-2[nH]c2ccccc12 [PD146176, 6,11-dihydro-[1]benzothiopyrano[4,3-b]indol]
protection against cell death mediated by complement attack and oxidative stress [1]: no protection; also recorded: no protective activity

OO [H2O2]
increase in cell death [2]: > 10 fold

Cn1nccc1-c1ccc(Sc2cccc(C3(C(N)=O)CCOCC3)c2)cc1 [PF-4191834, 4-(3-(4-(1-Methyl-1H-pyrazol-5-yl)phenylthio)phenyl)-tetrahydro-2H-pyran-4-carboxamide]
protection against loss of retinal ERG A-wave amplitude [3]: protected against the loss of ERG A-wave amplitude; also recorded: protected against functional loss | retinal structure / outer nuclear layer thickness [4]: protected retinal structure and preserved photoreceptors

N#C/C(=C\c1ccc(O)c(O)c1)C(=O)OCCc1cccs1 [2-TEDC]
IC50 ([1]; Homo sapiens, FIG. 7, read-out: I.C.50 of blocking cell death within the assay system): 100 nM | activity at the known I.C. 50 for 12 lipoxygenase ([1]; concentration = known I.C.50 for 12 lipoxygenase): little activity | protection at the known I.C.50 for 15 lox ([1]; concentration = known I.C.50 for 15 lox): ~100% | protection against cell death mediated by complement attack and oxidative stress [1]: dose dependently protected; also recorded: dose dependent protection | IC50 [5]: 90 nM

CC(C)(C)OO [t-BH]
increase in cell death [2]: 20-30%
